# Measurements published in ChEMBL document CHEMBL3639079, “Hydroxamic acid derivative” (2015).
# pIC50: −log10 of the molar value.
# Target: T1, UDP-3-O-acyl-N-acetylglucosamine deacetylase (Pseudomonas aeruginosa (strain ATCC 15692 / PAO1 / 1C / PRS 101 / LMG12228), UniProt P47205)
# T1 sequence (P47205 whole entry): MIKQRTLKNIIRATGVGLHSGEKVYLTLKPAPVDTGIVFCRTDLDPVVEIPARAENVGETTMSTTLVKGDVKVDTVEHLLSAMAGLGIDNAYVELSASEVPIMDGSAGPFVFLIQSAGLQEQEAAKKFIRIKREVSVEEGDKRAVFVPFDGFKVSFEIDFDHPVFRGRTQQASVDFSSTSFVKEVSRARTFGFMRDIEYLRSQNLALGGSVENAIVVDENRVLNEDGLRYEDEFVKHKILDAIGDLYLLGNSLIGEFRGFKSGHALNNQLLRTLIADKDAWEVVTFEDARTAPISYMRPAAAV
# Description: The reaction was performed in 40 mmol/L of Hepes buffer solution (pH 8.0) supplemented with 0.02% Bridge 35 and 80 µmol/L of dithiothreitol. To terminate the reaction, 0.2 mol/L of borax was added to the reaction mixture.
smiles,measurement,value
CNC(=O)C(C(=O)NO)N(C)C(=O)c1ccc(-c2ccc(OCCCN3CCOCC3)cc2)cc1 (stereo unspecified),pIC50,8.17
